From PMC11052077, “Discovery of Dolutegravir Derivative against Liver Cancer via Inducing Autophagy and DNA Damage” (Molecules, 2024)

How the values were obtained:
[1] = system: HRM cells (human renal mesangial cells); assay: in vitro; format: cell-based; settings: 20 µM
Experimental: This study aimed to assess the anti-proliferative activity of dolutegravir-1,2,3-triazole derivatives on hepatocellular carcinoma cell lines, Huh7 and hepG2. A comprehensive CCK8 assay was employed to evaluate the impact of these compounds on cell viability, with cells treated at a concentration of 20 μM for 48 h. HRM cells, a normal cell line, were included as a control for comparative analysis. […]
CCK8 assay was used to measure cell viability. Cells with a density of 1 × 10^4 cells/well were seeded on 96-well plates. After adhesion, cells were treated with different diluted compounds or vehicle control DMSO and continued to be cultured for 48 h or 72 h, respectively. Then, CCK8 reagent was added for one hour incubation at 37 °C with 5% CO2. Absorbance was measured using a Microplate spectrophotometer (Thermo, Waltham, MA, USA) at 450 nm. The ratio of cell viability of control was taken as 100%. […] Then, IC50 of compounds were investigated using the prism statistical software 7.0.

Huh7 cells [2] = assay: LIVE/DEAD staining (live and dead cell measurement); format: cell-based, human; settings: 5 μM or 10 μM, 24 h
Experimental: To further assess the anti-proliferative activity of dolutegravir derivatives, LIVE/DEAD staining was conducted. Huh7 cells were treated with 5 μM or 10 μM of 5e and 5p for 24 h, followed by live and dead cell imaging and quantification. […] This may be attributed to significant cell proliferation suppression at 10 μM concentration, leading to a limited number of viable cells. Furthermore, to validate the impact of dolutegravir derivatives on cell proliferation, a plate clone formation assay was performed. Cells were exposed to various concentrations (0, 2, 4, 8, 16, and 32 μM) of 5e or 5p.
Huh7 cells with a density of 5 × 10^3 cells/well were seeded on 96-well plates. Then, different concentrations (0, 5 μM, 10 μM) of 5e or 5p were treated for 24 h. Cells were then stained with the LIVE/DEAD Assay Kit, observed and photographed using the fluorescent microscope.

Huh7 cells [3] = assay: Cell cycle assay, PI staining flow cytometry; format: cell-based, human; settings: 8 μM, 48 h
Experimental: To further investigate the effects of compounds 5e and 5p on regulation of the cell cycle, we treated cancer cells with different concentrations of 5e or 5p for 48 h and then analyzed cell cycle distribution using flow cytometry.
Huh7 cells were cultured in 6-well plates with a density of 3 × 10^5 cells/well. Cells were treated with different concentrations (0, 4, and 8 μM for Huh7) of 5e or 5p for 48 h respectively. Then the cell cycle was determined by PI staining using the flow cytometer(Thermo, Beijing, China).

Huh7 cells [4] = assay: Cellular ROS measurement (DCFH-DA); format: cell-based, human; settings: 5, 10 and 20 μM, 24 h, Huh7, DCFH-DA staining
Experimental: Reactive oxygen species (ROS) play a crucial role in inducing cell death and inhibiting cell growth and proliferation. To investigate the impact of compounds 5e and 5p on ROS generation, various cancer cells were treated with 5e or 5p for 24 h. Subsequently, cells were stained with DCFDA [26], and ROS levels were visualized using a fluorescent microscope (Thermo, Beijing, China).
Huh7 cells were cultured in 96-well plates in a density of 5 × 10^3 cells/well. Different concentrations (0, 5, 10 and 20 μM) of 5e or 5p were added to cells, respectively, for 24 h. After treatment, cells were stimulated with 10 μM DCFH-DA for 30 min in 37 °C and then observed and photographed using the fluorescent microscope.

LC3 = assay: Western blot, LC3; format: cell-based, human; settings: 2, 4, 8 μM, 48 h, Huh7, western blot
Experimental: (§1) To elucidate the impact of compounds 5e and 5p on the regulation of cell proliferation, we examined the expression levels of key proteins involved in cell growth processes, encompassing autophagy, apoptosis, cell cycle, and DNA damage (Figure 7).
(§2) Protein expression levels were measured by western blot. Huh7 cells were cultured in 12-well plates and different concentrations (0, 2, 4, 8 μM) of 5e and 5p were added for 48 h. Proteins were extracted from whole cells using radio-immunoprecipitation assay (RIPA) buffer containing a protease/phosphatase inhibitor cocktail (CST). Then, 10–15% sodium dodecyl sulfate polyacrylamide gel electrophoresis and nitrocellulose membranes (Millipore) were employed to separate and collect proteins. Antibodies used include LC3 (3868s, CST), Caspase3 (9662, CST), cyclin D (2922s, CST), cyclin E (20808s, CST), γH2AX (9718s, CST), β-Catenin (9562s, CST), and β-actin (4967s, CST).

γ-H2AX = assay: Western blot, γ-H2AX; format: cell-based, human; settings: 2, 4, 8 μM, 48 h, Huh7, western blot
Experimental: as §1, §2

γ-H2AX in Huh7 cells = assay: γ-H2AX immunofluorescence / DNA damage staining, Huh7; format: cell-based, human; settings: Huh7, 5, 10, 20 μM, 24 h
Experimental: (§3) The phosphorylation of H2AX serves as a highly specific and sensitive molecular marker for DNA damage. Through Western blotting, we have confirmed that compounds 5e and 5p induce DNA damage in Huh7 and HepG2 cells. To further substantiate the inhibitory effect of compounds 5e and 5p on Huh7 cells, immunofluorescence was employed to assess their correlation with γ-H2AX.
The Huh7 cells with a density of 5 × 10^3 cells per well were seeded in a 96-well plate for overnight incubation. Then, different concentrations (0, 5 μM, 10 μM, 20 μM) of the compounds 5e and 5p were added to cells for 24 h. A DNA damage detection kit was used to dye the cells, and cells were observed and photographed by a fluorescent microscope. Cell nucleus is stained blue, and DNA damage is shown as green fluorescence.

γ-H2AX in HepG2 cells = assay: γ-H2AX immunofluorescence, HepG2; format: cell-based, human; settings: HepG2, 72 h
Experimental: as §3
The HepG2 cells (1 × 10^6) were plated in laser confocal dishes (Nest, Wuxi, China), before Compound 5e and 5p were treated for 72 h. Then, 4% paraformaldehyde was added to each laser confocal dishes for 20 min, after rinsing with PBS. The Triton X-100 was used to penetrate the cells for 20 min. Before the cells were incubated with p-H2AX (Cell Signaling Technology, Danvers, MA, USA) at 1:800 dilution at 4 °C overnight, goat serum was used to block for 30 min. Subsequently, the HepG2 were rinsed with PBS and incubated with Alexa Fluor 488 (Proteintech, Wuhan, China) at a 1:1000 dilution in the dark at room temperature for 1 h. DAPI was added to each laser to stain the cell nucleus for 5 min. Then, the cells were observed under a laser confocal microscope (Nikon, Tokyo, Japan), after rinsing with PBS.

COc1c2n(cc(C(=O)Nc3cccc(-c4cn(-c5cccc(C(F)(F)F)c5)nn4)c3)c1=O)CC1OCCC(C)N1C2=O (stereo not drawn) [Compound 5p] was tested, and the “Cell Viability (100%), 20 μM, 48 h, HRM” value [1] was 16.33%, the “live Huh7 cells (LIVE/DEAD staining)” value (Huh7 cells [2]) was “decreased with increasing concentration” and the “ratio of dead to live cells” value (Huh7 cells [2]) was “increased compared to the untreated group”. For the same molecule, the “effect on S phase of cell cycle” value (Huh7 cells [3]) was “clearly decreased phase of S”, the ROS generation (Huh7 cells [4]) was “significant increase in ROS generation” and the LC3 protein expression (LC3) was “significant increase in expression”. For the same molecule, the “γ-H2AX protein expression (DNA damage)” value (γ-H2AX) was “induction of γ-H2AX”, the “γ-H2AX expression by immunofluorescence” value (γ-H2AX in Huh7 cells) was “increased the expression of γ-H2AX” and the “γ-H2AX expression by immunofluorescence” value (γ-H2AX in HepG2 cells) was “increased the expression of γ-H2AX”.
